Reference: patent US6211375A, “Pyridonecarboxylic acid derivatives or salts thereof and antibacterial agents containing the same as the active ingredient” (Wakunaga Pharmaceutical Co., Ltd., priority 1996, dated 2001)
Values after ≈ are worked out from the molar mass of the structure shown. Like-named read-outs stand apart in the source and are kept apart here.

Tests used:
ears = experiment: Phototoxicity Test (abnormality in the ears of mice after UVA irradiation); format: in vivo, Female ICR mice; details: 40 mg/kg i.v., UVA 320 to 400 nm, 4 hours; for ear abnormality, point: 0 = no abnormality, 1 = very slight erythema, 2 = well defined erythema, 3 = moderate to severe erythema or edema
Protocol: Female ICR mice (5 to 6 week old) were intravenously administered with the test compound (40 mg/kg/10 ml), and irradiated with UVA (320 to 400 nm, 1.8 mW/cm^2 /sec) for 4 hours. Abnormality in the ears was monitored at 0 hour immediately after the irradiation and after 24 hours. The ear abnormality was evaluated by the following criteria: no abnormality (0 point), very slight erythema (1 point), well defined erythema (2 points), moderate to severe erythema or edema formation (3 points). Tosufloxacin which is a conventional known antibacterial agent was also tested in a similar way for the purpose of comparison.

P. aeruginosa IFO3445 = experiment: Antibacterial Activity, minimum growth inhibitory concentration (MIC), P. aeruginosa IFO3445; format: cell-based; details: Pseudomonas aeruginosa, standard method of Japan Chemotherapy Society
Protocol: (§1) Minimum growth inhibitory concentration (MIC, μg/ml) was evaluated in accordance with the standard method of Japan Chemotherapy Society (Chemotherapy 29(1), 76, 1981). It should be noted that tosufloxacin was also evaluated for its minimum growth inhibitory concentration for the purpose of comparison.

S.aureus 209P = experiment: Antibacterial Activity, minimum growth inhibitory concentration (MIC), S.aureus 209P; format: cell-based; details: Staphylococcus aureus, standard method of Japan Chemotherapy Society
Protocol: as §1

[1] = Absorption and Excretion (urine and bile recovery rates after oral administration); format: in vivo, Male SD rats; details: rat, 20 mg/kg, rats, oral 20 mg/10 ml/kg
Protocol: A compound of the present invention was measured for its urine and bile recovery rates in rats after its oral administration to evaluate absorption and excretion of the compounds.
Male SD rats of 6 week old which had been fasted overnight were administered orally with 0.5% methylcellulose suspension of the test compounds (20 mg/10 ml/kg). The urine collection was continued until 24 hours after the administration. The concentration of the test compound in the urine was measured by paper disc method using Bacillus subtilis ATCC6633 for the test bacterium to determine the urine recovery rate.
Into choledoch duct of male SD rats of 6 week old which had been fasted overnight was inserted a polyethylene tube under etherization. After arousing, the rats were forcedly administered orally with the test compounds as in the case of the above (1), and bile collection was continued until 24 hours after the administration. The bile with no further treatment and the bile alkaline hydrolyzed (with 0.1N NaOH, 37° C., 1 hour) were measured for their concentration of the test compound by the same procedure as in the case of the above (1) to determine the bile recovery rate.

Compound	ear abnormality, occurrence (ears; 0 hour after irradiation)	ear abnormality, point (ears; 0 hour after irradiation)	ear abnormality, occurrence (ears; 24 hours after irradiation)	ear abnormality, point (ears; 24 hours after irradiation)	MIC (P. aeruginosa IFO3445)	MIC (S.aureus 209P)	dose excreted at 24 h ([1]; bile, 0-24 hours, bile after alkaline hydrolysis (0.1N NaOH, 37° C., 1 hour), read-out: Recovery rate (24 hours), Bile*)	dose excreted at 24 h ([1]; bile, 0-24 hours, bile with no further treatment, read-out: Recovery rate (24 hours), Bile)	dose excreted at 24 h ([1]; urine and bile, 24 hours, total recovery rate, read-out: Recovery rate (24 hours), Total recovery rate)	dose excreted at 24 h ([1]; urine, 0-24 hours, paper disc method with Bacillus subtilis ATCC6633, read-out: Recovery rate (24 hours), Urine)
Cc1cc(F)c(N)cc1-n1cc(C(=O)O)c(=O)c2cc(F)c(N3CC(N)C3)c(C)c21 [Compound of Ex. 4, 7-(3-aminoazetidin-1-yl)-1-(3-amino-4-fluoro-6-methylphenyl)-6-fluoro-8-methyl-1,4-dihydro-4-oxoguinoline-3-carboxylic Acid]	0/3	0 point	0/3	0 point	0.1 µg/mL (≈ 0.241 µM)	0.003 µg/mL (≈ 0.00724 µM)	–	–	–	–
Cc1c(F)c(N2CC(N)C2)c(C)c2c1c(=O)c(C(=O)O)cn2-c1cc(N)c(F)cc1F [Compound of Ex. 10, 7-(3-aminoazetidin-1-yl)-1-(3-amino-4,6-difluorophenyl)-6-fluoro-5,8-dimethyl-4-oxo-1,4-dihydroquinoline-3-carboxylic Acid]	0/3	0 point	0/3	0 point	0.1 µg/mL (≈ 0.231 µM)	0.003 µg/mL (≈ 0.00694 µM)	–	–	–	–
Cc1c(N2CC(C)(N)C2)c(F)cc2c(=O)c(C(=O)O)cn(-c3cc(N)c(F)cc3F)c12 [Compound of Ex. 3, 7-(3-amino-3-methylazetidin-1-yl)-1-(3-amino-4,6-difluorophenyl)-6-fluoro-8-methyl-1,4-dihydro-4-oxoguinoline-3-carboxylic Acid]	0/3	0 point	0/3	0 point	0.1 µg/mL (≈ 0.231 µM)	0.006 µg/mL (≈ 0.0139 µM)	26.7%	10.4%	30.6%	3.9%
NC1CCN(c2nc3c(cc2F)c(=O)c(C(=O)O)cn3-c2ccc(F)cc2F)C1 (stereo not shown) [Tosufloxacin, reference compound]	4/5	1.8 point	4/5	0.8 point	0.39 µg/mL (≈ 0.965 µM)	0.05 µg/mL (≈ 0.124 µM)	–	–	–	–
Cc1cc(F)c(N)cc1-n1cc(C(=O)O)c(=O)c2cc(F)c(N3CC(O)C3)c(C)c21 [Compound of Ex. 9, 1-(3-amino-4-fluoro-6-methylphenyl)-6-fluoro-7-(3-hydroxyazetidin-1-yl)-8-methyl-4-oxo-1,4-dihydroquinoline-3-carboxylic Acid]	0/3	0 point	0/3	0 point	0.2 µg/mL (≈ 0.481 µM)	0.013 µg/mL (≈ 0.0313 µM)	–	–	–	–
Cc1c(N2CC(O)C2)c(F)cc2c(=O)c(C(=O)O)cn(-c3cc(N)c(F)cc3F)c12 [Compound of Ex. 8, 1-(3-amino-4,6-difluorophenyl)-6-fluoro-7-(3-hydroxyazetidin-1-yl)-8-methyl-4-oxo-1,4-dihydroquinoline-3-carboxylic Acid]	0/3	0 point	0/3	0 point	0.2 µg/mL (≈ 0.477 µM)	0.006 µg/mL (≈ 0.0143 µM)	–	–	–	–
CNC1CN(c2c(F)cc3c(=O)c(C(=O)O)cn(-c4cc(N)c(F)cc4C)c3c2C)C1 [Compound of Ex. 6, 1-(3-amino-4-fluoro-6-methylphenyl)-6-fluoro-8-methyl-7-(3-methylaminoazetidin-1-yl)-1,4-dihydro-4-oxoguinoline-3-carboxylic Acid]	0/3	0 point	0/3	0 point	0.2 µg/mL (≈ 0.467 µM)	0.013 µg/mL (≈ 0.0303 µM)	–	–	–	–
Cc1cc(F)c(N)cc1-n1cc(C(=O)O)c(=O)c2cc(F)c(N3CC(C)(N)C3)c(C)c21 [Compound of Ex. 5, 7-(3-amino-3-methylazetidin-l-yl)-1-(3-amino-4-fluoro-6-methylphenyl)-6-fluoro-8-methyl-1,4-dihydro-4-oxoguinoline-3-carboxylic Acid]	0/3	0 point	0/3	0 point	0.2 µg/mL (≈ 0.467 µM)	0.013 µg/mL (≈ 0.0303 µM)	–	–	–	–
Cc1c(N2CC(N)C2)c(F)cc2c(=O)c(C(=O)O)cn(-c3cc(N)c(F)cc3F)c12 [Compound of Ex. 1, 7-(3-aminoazetidin-1-yl)-1-(3-amino-4,6-difluorophenyl)-6-fluoro-8-methyl-1,4-dihydro-4-oxoguinoline-3-carboxylic Acid]	0/3	0 point	0/3	0 point	0.05 µg/mL (≈ 0.12 µM)	0.006 µg/mL (≈ 0.0143 µM)	–	–	–	–
CNC1CN(c2c(F)cc3c(=O)c(C(=O)O)cn(-c4cc(N)c(F)cc4F)c3c2C)C1 [Compound of Ex. 2, 1-(3-amino-4,6-difluorophenyl)-6-fluoro-8-methyl-7-(3-methylaminoazetidin-1-yl)-1,4-dihydro-4-oxoguinoline-3-carboxylic Acid]	0/3	0 point	0/3	0 point	0.1 µg/mL (≈ 0.231 µM)	0.006 µg/mL (≈ 0.0139 µM)	–	–	–	–
Cc1c(N2CC(N)C2)c(F)cc2c(=O)c(C(=O)O)cn(-c3cc(N)c(F)cc3Cl)c12 [Compound of Ex. 7, 7-(3-aminoazetidin-1-yl)-1-(3-amino-6-chloro-4-fluorophenyl)-6-fluoro-8-methyl-1,4-dihydro-4-oxoguinoline-3-carboxylic Acid]	0/3	0 point	0/3	0 point	0.1 µg/mL (≈ 0.23 µM)	0.013 µg/mL (≈ 0.0299 µM)	–	–	–	–
